Measured values: patent publication US12138256B2, “Treatment of cardiopulmonary disorders” (Bayer Aktiengesellschaft, priority 2021, dated 2024)
Values joined by “and” are separate entries in the source; they are usually repeats but may differ in a detail not shown here. Equal entries are not always repeated.

Assays:
[1] = tested on: pulmonary vascular resistance (PVR); details: cited from earlier work
[2] = tested on: isolated Langendorff-perfused rat heart; assay: Isolated perfused heart according to Langendorff: perfusion pressure and wash-out score (C-1.2); details: comparative example 11 300 nmol/l, others 100 nmol/l, n=6
Description: Male Wistar rats (strain HsdCpb:WU) with a body weight of 200-250 g were anaesthetized with Narcoren® (100 mg/kg). The thorax was opened and the heart was then exposed, excised and connected to a Langendorff apparatus by placing a cannula into the aorta. The heart was perfused retrogradely at 9 ml/min at constant flow with a Krebs-Henseleit buffer solution (gassed with 95% O2 and 5% CO2, pH 7.4, 35° C.; composition in mmol/l: NaCl 118; KCl 3; NaHCO3 22; KH2PO4 1.2; MgSO4 1.2; CaCl2 1.8; Glucose 10; Na pyruvate 2). A pressure transducer registered the perfusion pressure in the perfusion system. The left ventricular pressure (LVP) was measured using a second pressure transducer connected to a water-filled balloon which was inserted into the left ventricle via the left atrium. The end diastolic pressure was initially set to 8 mm Hg by adjusting the volume of the balloon. The hearts were spontaneously beating. The signals from the pressure transducer were amplified, registered by a personal computer (Powerlab Chart software, ADInstruments).
Then the hearts were perfused for a further 120 min without the test substance (wash-out phase). The reversibility of the effect (wash-out score) was calculated as a percentage of the PP recovery after 60 min of washout related to the maximum drop of PP induced by the test compound. The wash-out score obtained in this manner was taken as a measure for the residence time of the test substance at the site of action.

[3] = tested on: thromboxane analog U46619 induced PAH in minipigs; assay: PAH minipig model: comparison with and on top of standard of care (bosentan, sildenafil, riociguat); assay type: in vivo, Göttingen minipig
Description: Efficacy of inhaled comparative example 11 was compared with systemically applied bosentan, sildenafil and riociguat (see FIG. 53a) in the PAH minipig model. […] Therefore inhaled application of comparative example 11 offers clear benefits as systemic effects are avoided, compared to standard of care.

[4] = Caco-2 permeability test (C-5.1); assay type: in vitro ADME, human; details: human, Caco-2 (2 μM)
Description: The in vitro permeation of a test compound across a Caco-2 cell monolayer is a well-established assay system to predict the permeability from the gastro-intestinal tract (1). The permeability of the compounds of the present invention in such Caco-2 cells was determined as described below:
Human caco-2 cells were seeded on 24-well insert plates and were allowed to grow for 14-16 days. For permeability studies, the test compounds were dissolved in DMSO and diluted to the final test concentration of 2 μM with transport buffer [Hanks' Buffered Salt Solution, Gibco/Invitrogen, further supplemented with glucose and HEPES]. For determination of the apical to basolateral permeability (PappA-B), the test compound solution was added to the apical side of the cell monolayer and transport buffer to the basolateral side of the monolayer; for determination of the basolateral to apical permeability (PappB-A), the test compound solution was added to the basolateral side of the cell monolayer and transport buffer to the apical side of the monolayer. Samples were taken from the donor compartment at the beginning of the experiment to confirm mass balance. After an incubation of 2 h at 37° C., samples were taken from both compartments. Samples were analyzed by LC-MS/MS, and the apparent permeability coefficients were calculated. Lucifer Yellow permeability was assayed for each cell monolayer to ensure cell monolayer integrity, and the permeability of Atenolol (low permeability marker) and Sulfasalazine (marker for active excretion) was determined for each batch as quality control.

[5] = Protein binding via ultrafiltration assay (comparative example 2); assay type: in vitro ADME
Description: For this assay, filter membranes of 30 kDa pore size were used to separate plasma and protein free ultrafiltrate. The driving force for filtration was applied by centrifugation. Prior to protein binding studies, the adsorption (recovery) of the test compound to the ultra-filtration device and the ability of the test compound to pass the filter membrane was checked by filtration of the test compound dissolved in buffer at four concentrations. Sufficient stability of the test compound and an almost complete recovery (≥90% of the actual amount of compound used for the experiment) was a prerequisite for the use of the ultrafiltration method. The amount of organic solvent added to the plasma may not exceed 2% of the total incubation volume. Blood samples were collected in heparinized tubes either pooled (all species except human and monkey) or individually (human and monkey) and were used within 24 h for incubation experiments in blood. Plasma was prepared by centrifugation of the heparinized blood samples. Plasma was stored at −15° C. until use. Plasma stability, Compound recovery, unspecific binding to the membrane and the test device as well as partitioning between blood cells and plasma were controlled. The substance-associated radioactivity was determined by liquid scintillation counting. With this analytical method, it is not possible to distinguish between unchanged substance and radioactive metabolites. For details of the radioanalytical methods and the work up of the samples see Goeller et al. (3). A description of the ultrafiltration method in general was published by Zhang et al. In 2012 (4).

[6] = tested on: acetylcholine-induced bronchospasm; assay: Bronchorelaxation in vivo: acetylcholine-induced bronchoconstriction in Brown Norway rats, RL and Cdyn (C-3.2); set-up: species or system rat; details: inhaled 60 minutes before provocation; tiotropium 1 μg/kg; comparative example 11 1, 10 and 100 μg/kg
Description: The bronchoconstriction model (see Hoymann H G. Lung function measurements in rodents in safety pharmacology studies. Front Pharmacol 2012; 3:156) used Male Brown Norway rats (Charles River, Sulzfeld, Germany; 10-12 weeks old) randomized to three treatment groups (comparative example 11, 1 μg/kg, 10 μg/kg, and 100 μg/kg; n=12-13), one positive control group (tiotropium 1 μg/kg; n=12), and one vehicle control group (n=17). Animals were treated with the inhaled test compounds 60 minutes before provocation. Comparative example 11, vehicle, or tiotropium were aerosolized using a micro feeding system and a dispersion nozzle operated with pressurized air. The aerosol concentration was determined by filter sampling with gravimetrical analysis and monitored continuously by a photometer. The lung-deposited doses were assessed from the inhalation dose (Raabe O G, Al-Bayati M A, Teague S V, Rasolt A. Regional Deposition of Inhaled Monodisperse Coarse and Fine Aerosol Particles in Small Laboratory Animals. The Annals of Occupational Hygiene 1988; 32:53-63.). […] After reaching a steady state in respiration, lung function of the spontaneously breathing animal was recorded as baseline values for ≥2 minutes; amongst other parameters, lung resistance (=RL) and dynamic compliance (=Cdyn) were used to assess bronchoconstriction. […]

[7] = tested on: thromboxane analog U46619 induced PAH in minipigs; assay: Haemodynamics (PAP, BP) in the anesthetized thromboxane challenged PAH minipig after inhaled (nebulized) application (C-2.1); assay type: in vivo, Göttingen minipig; details: inhaled; Ventavis 10 μg/kg nominal dose; comparative example 11 10, 30 and 100 μg/kg nominal dose; 240 min observation interval
Procedure, shortened: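 Anesthetized, ventilated Göttingen minipigs (2-6 kg) given continuous infusion (0.3-0.75 μg/kg/min) to raise mean PAP above 25 mmHg, dosing starting after a 30 min plateau. Compound in 1% DMSO/0.2% citric acid, pH 8, nebulized via Aeroneb Pro into the inspiratory arm (~7 min; stock 300 μg/kg). PAP by Swan-Ganz catheter, BP via carotid catheter.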

[8] = tested on: thromboxane analog U46619 induced PAH in minipigs with ODQ or L-NAME pretreatment; assay: PAH minipig model under oxidative stress / low NO (pretreatment by ODQ or L-NAME); assay type: in vivo, Göttingen minipig; set-up: PAP / BP: unit not given beside the values; details: for BP / PAP: Ventavis 10 μg/kg nominal dose inhaled
Description: To simulate conditions of oxidative stress or low NO concentrations as assumed to be present in different cardiovascular disorders, comparative example 11 was evaluated with and without pretreatment by ODQ (inhibitor of sGC) or L-NAME (NOS inhibitor). […] In contrast, the effects of Ventavis® under conditions of oxidative stress or low NO concentrations were not enhanced. In addition, also under these pathophysiological conditions the duration of action of comparative example 11 was much longer compared to Ventavis®.

[9] = Riociguat 3 μg/kg/h systemically applied, % change per animal

In the case of CCCCC[C@H](O)CC[C@@H]1[C@H]2Cc3cccc(OCC(=O)O)c3C[C@H]2C[C@H]1O [Treprostinil], the “mean change in PVR from baseline” value ([1]; single administration, historical comparison) is given as −30%.

With COC(=O)N(C)c1c(N)nc(-c2nn(Cc3ccccc3F)c3ncccc23)nc1N [comparative example 2, Methyl-4,6-diamino-2-[1-(2-fluorobenzyl)-1H-pyrazolo[3,4-b]pyridine-3-yl]-5-pyrimi-dinyl(methyl)carbamate, reference compound] the wash-out score ([2]; PP recovery after 60 min of washout related to maximum drop of PP) was 98%, the “effect on perfusion pressure (PP)” value [2] was “pronounced reduction of perfusion pressure” and the BP decrease % [3, 9] was −0.3% and −8.8% and −10.9%. For the same compound, the PAP decrease % [3, 9] was −9.1% (2×) and −16.8%, the “effects on PAP and BP” value ([3]; bosentan 1 mg/kg, sildenafil 300 μg/kg/h, riociguat 3 μg/kg/h systemically, comparative example 11 30 and 100 μg/kg inhaled) was “decreases in both PAP and BP” and the efflux ratio at 2 h, 2 μM [4] was 11 ± 3.3. It also gave a Papp A→B at 2 h, 2 μM ([4]; concentration per compound 2.0 or 2.4 μM, read-out: Papp A-B (mean +/− SD)) of 3.5 ± 0.84 ×10⁻⁶ cm/s, a Papp B→A at 2 h, 2 μM ([4]; concentration per compound 2.0 or 2.4 μM, read-out: Papp B-A (mean +/− SD)) of 36.7 ± 7.5 ×10⁻⁶ cm/s and a fraction unbound ([5]; Dog Beagle plasma) of 0.171. For the same compound, the fraction unbound ([5]; Human (male) plasma) was 0.0497 and the fraction unbound ([5]; Rat Wistar plasma) was 0.157.

With C[N+]1(C)[C@@H]2C[C@@H](OC(=O)C(O)(c3cccs3)c3cccs3)C[C@H]1[C@@H]1O[C@@H]12 [tiotropium, reference compound] the “bronchodilatory efficacy (RL)” value [6] was “inhibited acetylcholine-induced bronchospasm”.

In the case of CC#CCC(C)[C@H](O)/C=C/[C@@H]1[C@H]2C/C(=C/CCCC(=O)O)C[C@H]2C[C@H]1O (stereo partly shown) [Ventavis, reference compound], the duration of action [7] is reported as “about 40 min”, the BP ([8]; L-NAME pretreatment, Time 70) is reported as 105.0 and 133.0 and 125.0 and the PAP ([8]; L-NAME pretreatment, Time 70) is reported as 31.7 and 27.4 and 28.7. For the same compound, the BP ([8]; L-NAME pretreatment, Time 80) was 106.0 and 131.0 and 123.0, the PAP ([8]; L-NAME pretreatment, Time 80) was 41.2 and 33.5 and 29.7 and the BP ([8]; L-NAME pretreatment, Time 90) was 102.0 and 124.0 and 121.0. For the same compound, the PAP ([8]; L-NAME pretreatment, Time 90) was 42.2 and 37.9 and 32.1, the BP ([8]; L-NAME pretreatment, Time 100) was 101.0 and 124.0 and 117.0 and the PAP ([8]; L-NAME pretreatment, Time 100) was 41.5 and 39.6 and 38.9. For the same compound, the BP ([8]; L-NAME pretreatment, Time 110) was 101.0 and 125.0 and 114.0, the PAP ([8]; L-NAME pretreatment, Time 110) was 41.5 and 41.0 and the BP ([8]; ODQ pretreatment, Time 70) was 97.0 and 103.0 and 92.0. For the same compound, the PAP ([8]; ODQ pretreatment, Time 70) was 33.6 and 26.4 and 25.9, the BP ([8]; ODQ pretreatment, Time 80) was 98.0 and 105.0 and 92.0 and the PAP ([8]; ODQ pretreatment, Time 80) was 37.4 and 32.8 and 32.1. The BP ([8]; ODQ pretreatment, Time 90) was 100.0 and 104.0 and 92.0, the PAP ([8]; ODQ pretreatment, Time 90) was 38.5 and 37.5 and 38.2 and the BP ([8]; ODQ pretreatment, Time 100) was 101.0 and 104.0 and 93.0. The PAP ([8]; ODQ pretreatment, Time 100) was 38.8 and 40.6 and 39.2, the BP ([8]; ODQ pretreatment, Time 110) was 103.0 and 94.0 and the PAP ([8]; ODQ pretreatment, Time 110) was 39.3 and 39.5 and 40.0. For the same compound, the BP ([8]; without pretreatment, Time 70) was 107.0 and 109.0 and 116.0, the PAP ([8]; without pretreatment, Time 70) was 26.1 and 28.2 and 29.6 and the BP ([8]; without pretreatment, Time 80) was 102.0 and 110.0 and 113.0. The PAP ([8]; without pretreatment, Time 80) was 34.7 and 36.7 and 37.4, the BP ([8]; without pretreatment, Time 90) was 99.0 and 109.0 and 111.0 and the PAP ([8]; without pretreatment, Time 90) was 38.9 and 41.2. The BP ([8]; without pretreatment, Time 100) was 98.0 and 106.0 and 108.0, the PAP ([8]; without pretreatment, Time 100) was 37.9 and 39.2 and 41.9 and the BP ([8]; without pretreatment, Time 110) was 95.0 and 105.0 and 106.0. For the same compound, the PAP ([8]; without pretreatment, Time 110) was 38.4 and 39.5 and 42.2, the “effect on PAP after pretreatment of ODQ or L-NAME” value ([8]; inhaled, comparative example 11 30 μg/kg ND, Ventavis 10 μg/kg nominal dose) was “not enhanced” and the “duration of action on haemodynamics (PVR) in clinical studies” value ([1]; inhaled, patients) was “about 60 min”.
